The subject of one data set is bEnd.3 hemangiomas. As to the kind of experiment: bEnd.3 hemangioma in vivo, intralesional treatment. The procedure:
In order to determine if compounds that inhibit ang-2 formation in vitro would ameliorate hemangioma formation in vivo, we injected one million bEnd.3 cells subcutaneously into nine nude mice.
For each treatment condition, three mice were injected with 1,000,000 bEnd.3 cells and received intralesional injection with either vehicle control, brilliant green or gentian viol et (from left to right in photo) on days 9 and 14. Animals were euthanized on day 20, secondary to tumor burden in the control animals.
For each treatment condition, three mice were subcutaneously injected with one million bEnd.3 cells and monitored for tumor development. On day 9, tumors were measured in all nine animals, and there was no significant difference in tumor volume before the initiation of treatment. Each mouse then received intralesional injection with either 0.33 ml vehicle control, brilliant green (5 mg/kg, dissolved in […] ethanol and 900 μl intralipid) or gentian violet (5 mg/kg, dissolved in 100 μl ethanol and 900 μl intralipid) on days 9 and 14. No toxicity was noted following injection. Animals were euthanized on day 20, secondary to tumor burden in the control animals. Photos represent average tumor burden in each of the three groups (FIG. 3a), and tumor volume (mm^3) is graphically depicted (FIG. 3b). Error bars represent the standard error of the mean.

Data set [1] relates to P. falciparum D6 (Chloroquine Sensitive). Nature of the data set: Malaria model, chloroquine sensitive P. falciparum. The data set is classed as cell-based. The conditions noted are these: Plasmodium falciparum, D6; read-out: IC50 (nM) vs P. falciparum D6 (Chloroquine Sensitive). As for the experimental part: (§1) The compounds were tested in a malaria model using both chloroquine sensitive and multidrug resistant P. falciparum. The malaria model was the same as published in JAC Advance Access published online on Jul. 30, 2008, Journal of Antimicrobial Chemotherapy, doi:10.1093/jac/dkn315, the contents of which are hereby incorporated by reference, and the data is summarized in the table below.
(§2) Briefly, the assay involves exposing both chloroquine sensitive and multidrug resistant P. falciparum to the compounds. After one hour of exposure to the highest concentration of the compound, followed by removal of the compound, the growth of all stages of P. falciparum was observed. The reduction in the growth stages was then compared with untreated control parasites. […] The presence of strong inhibition (defined herein as 10% growth) of all parasite stages was evaluated when the parasites were exposed to various concentrations of various compounds.

The subject of data set [2] is P. falciparum Dd2 (Multidrug Resistant). As to the kind of experiment: Malaria model, multidrug resistant P. falciparum. The conditions noted are these: Plasmodium falciparum, DD2; read-out: IC50 (nM) vs P. falciparum Dd2 (Multidrug Resistant). The data set is classed as cell-based. As for the experimental part:
as §1, §2

The target of the next data set is T1, Nox4 (Homo sapiens, UniProt Q9NPH5).
T1 construct: expressed in transfected cells; host or cells: HEK293 Nox4-11 cells
T1 sequence (Q9NPH5 1-578): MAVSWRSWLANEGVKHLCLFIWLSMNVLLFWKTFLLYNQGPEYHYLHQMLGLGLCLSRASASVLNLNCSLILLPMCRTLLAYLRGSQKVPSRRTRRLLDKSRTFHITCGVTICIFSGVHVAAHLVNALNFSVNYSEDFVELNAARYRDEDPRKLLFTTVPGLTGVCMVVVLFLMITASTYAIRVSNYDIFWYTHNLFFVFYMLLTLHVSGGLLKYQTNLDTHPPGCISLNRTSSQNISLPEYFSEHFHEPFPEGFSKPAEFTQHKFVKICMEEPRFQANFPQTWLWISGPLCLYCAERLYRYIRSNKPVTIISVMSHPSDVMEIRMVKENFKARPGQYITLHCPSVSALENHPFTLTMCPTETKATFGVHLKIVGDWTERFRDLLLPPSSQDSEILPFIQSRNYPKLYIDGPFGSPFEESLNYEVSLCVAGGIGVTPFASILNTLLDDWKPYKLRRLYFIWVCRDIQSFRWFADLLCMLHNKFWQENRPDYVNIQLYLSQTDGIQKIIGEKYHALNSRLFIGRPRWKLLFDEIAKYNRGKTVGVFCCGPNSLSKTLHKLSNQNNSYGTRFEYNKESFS
T1 sequence (P13498 2-195 partner limits assumed): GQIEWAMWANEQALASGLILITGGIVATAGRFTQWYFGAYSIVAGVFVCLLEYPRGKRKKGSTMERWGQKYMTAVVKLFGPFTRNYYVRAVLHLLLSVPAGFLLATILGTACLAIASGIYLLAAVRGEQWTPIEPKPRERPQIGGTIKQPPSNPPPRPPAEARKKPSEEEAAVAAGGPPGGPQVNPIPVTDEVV
As to the kind of experiment: H2O2 production, homovanillic acid assay, HEK293 Nox4-11 cells. Type of data set: cell-based. The conditions noted are these: 1 hour 37° C. The procedure:
After 1 hour incubation at 37° C., the reaction was stopped and H2O2 production was measured using the homovanillic acid assay. The ability of these drugs to inhibit production of H2O2 is shown as a percentage relative to the untreated control (100%). […] Optimal Nox2 activity requires phorbol 12-myristate 13-acetate stimulation whereas Nox4 activity is constitutive.
H2O2 release was measured using the homovanillic acid assay as described previously (Martyn, 2006). Briefly, 1.5-1.75×10^5 cells/well of a 12-well plate were seeded. The following day, cells were washed once with Hank's balanced salt solution and then preincubated for 15 minutes with either gentian violet (10-20 nM) or brilliant green (0.5-1.0 μM) in 1 ml of media. The cells were then washed once with Hank's balanced salt solution. Gentian violet or brilliant green was added at the same concentrations as in pretreatment to 0.5 ml of homovanillic acid assay solution (100 μM homovanillic acid assay, 4 U/ml horseradish peroxidase in Hank's balanced salt solution with Ca^2+ and Mg^2+) and incubated with the cells for 1 hour at 37° C. Cos-phox cells were additionally stimulated with 0.4 μg/ml phorbol 12-myristate 13-acetate. […] Fluorescence was read on a BioTek Synergy HT (BioTek Instruments Inc., Winooski, Vermont, […].) with an excitation of 320 nm and emission of 440 nm.

A word on the IC50: it is the concentration that inhibits the measured activity by half.

Consider `CN(C)c1ccc(C(=C2C=CC(=[N+](C)C)C=C2)c2ccc(N(C)C)cc2)cc1` [Gentian Violet (GV), hexamethyl pararosaniline chloride], for which the “decrease in tumor size compared to control” value in the data set on bEnd.3 hemangiomas (5 mg/kg intralesional on days 9 and 14, euthanized day 20) amounted to 92.6%. The “toxicity as a result of treatment” value in the data set with bEnd.3 hemangiomas (mouse, in vivo, 5 mg/kg) is “Neither local nor systemic toxicity was observed”. For the same compound, the IC50 in data set [1] turned out to be 12.1 nM; in data set [2], 0.44 nM. Also, the “inhibition of Nox4 activity (H2O2 production)” value at Nox4 is on record as “inhibited”.
